# ChEMBL document CHEMBL5046279, “Discovery of a Partial Glucokinase Activator Clinical Candidate: Diethyl ((3-(3-((5-(Azetidine-1-carbonyl)pyrazin-2-yl)oxy)-5-isopropoxybenzamido)-1H-pyrazol-1-yl)methyl)phosphonate (BMS-820132)” (J Med Chem, 2022)
# How the values were obtained:
# [1] = AUC (0 to 24 hrs) in Sprague-Dawley rat at 2.5 mg/kg, iv measured upto 24 hrs by LC-MS/MS analysis; assay type: ADME, organism-based; set-up: route intravenous, dose 2.5 mg/kg, time <=24; settings: in vivo
# [2] = Cmax in CD1 mouse at 5 mg/kg, po measured upto 24 hrs by LC-MS/MS analysis; assay type: ADME, organism-based; set-up: route oral, dose 5 mg/kg, time <=24; settings: in vivo
# [3] = Cmax in Sprague-Dawley rat at 5 mg/kg, po measured upto 24 hrs by LC-MS/MS analysis; assay type: ADME, organism-based; set-up: route oral, dose 5 mg/kg, time <=24; settings: in vivo
# [4] = Cmax in Beagle dog at 3 mg/kg, po measured upto 24 hrs; assay type: ADME, organism-based, Canis lupus familiaris; set-up: route oral, dose 3 mg/kg, time <=24; settings: in vivo
# [5] = Tmax in CD1 mouse at 5 mg/kg, po measured upto 24 hrs by LC-MS/MS analysis; assay type: ADME, organism-based; settings: in vivo
# [6] = Tmax in Sprague-Dawley rat at 5 mg/kg, po measured upto 24 hrs by LC-MS/MS analysis; assay type: ADME, organism-based; settings: in vivo
# [7] = Half life in Beagle dog at 3 mg/kg, iv measured upto 24 hrs; assay type: ADME, organism-based, Canis lupus familiaris; settings: in vivo
# [8] = Volume of distribution at steady state in Sprague-Dawley rat at 2.5 mg/kg, iv measured upto 24 hrs by LC-MS/MS analysis; assay type: ADME, organism-based; settings: in vivo, read-out: Vdss
# [9] = Systemic plasma clearance in CD1 mouse at 2.5 mg/kg, iv measured upto 24 hrs by LC-MS/MS analysis; assay type: ADME, organism-based
# [10] = Systemic plasma clearance in Beagle dog at 3 mg/kg, iv measured upto 24 hrs; assay type: ADME, organism-based, Canis lupus familiaris
# [11] = Oral bioavailability in CD1 mouse at 5 mg/kg measured upto 24 hrs by LC-MS/MS analysis; assay type: ADME, organism-based; settings: in vivo
# [12] = Oral bioavailability in Beagle dog at 3 mg/kg measured upto 24 hrs; assay type: ADME, organism-based, Canis lupus familiaris; settings: in vivo
# [13] = Oral bioavailability in cynomolgus monkey at 3 mg/kg measured upto 24 hrs; assay type: ADME, organism-based, Macaca fascicularis; settings: in vivo
# [14] = AUC (0 to 24 hrs) in CD1 mouse at 2.5 mg/kg, iv measured upto 24 hrs by LC-MS/MS analysis; assay type: ADME, organism-based; set-up: route intravenous, dose 2.5 mg/kg, time <=24; settings: in vivo
# [15] = AUC (0 to 24 hrs) in Beagle dog at 3 mg/kg, iv measured upto 24 hrs; assay type: ADME, organism-based, Canis lupus familiaris; set-up: route intravenous, dose 3 mg/kg, time <=24; settings: in vivo
# Cytochrome P450 2C8 = molecular target: T1, Cytochrome P450 2C8 (Homo sapiens, UniProt P10632); assay: Inhibition of CYP2C8 (unknown origin); assay type: ADME
# T1 sequence (P10632 whole entry): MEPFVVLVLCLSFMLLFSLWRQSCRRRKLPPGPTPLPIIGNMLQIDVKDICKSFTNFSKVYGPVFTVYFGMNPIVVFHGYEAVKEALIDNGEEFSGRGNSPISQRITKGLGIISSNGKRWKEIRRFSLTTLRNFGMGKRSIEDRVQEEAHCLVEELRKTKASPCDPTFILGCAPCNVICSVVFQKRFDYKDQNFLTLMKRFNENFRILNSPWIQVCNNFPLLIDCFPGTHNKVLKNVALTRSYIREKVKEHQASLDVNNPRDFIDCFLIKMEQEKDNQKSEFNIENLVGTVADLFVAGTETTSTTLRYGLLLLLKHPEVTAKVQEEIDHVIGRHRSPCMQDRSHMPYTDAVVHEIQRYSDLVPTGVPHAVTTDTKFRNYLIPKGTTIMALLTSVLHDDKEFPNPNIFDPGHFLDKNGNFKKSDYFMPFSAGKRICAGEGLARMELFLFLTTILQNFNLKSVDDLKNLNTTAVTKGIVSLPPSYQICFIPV
# [16] = molecular target: ATP-dependent translocase ABCB1 (Homo sapiens, UniProt P08183); assay: Inhibition of P-gp transporter (unknown origin)
# [17] = molecular target: T2, Nuclear receptor subfamily 1 group I member 2 (Homo sapiens, UniProt O75469); assay: Induction of human PXR upto 50 uM
# T2 sequence (O75469 whole entry): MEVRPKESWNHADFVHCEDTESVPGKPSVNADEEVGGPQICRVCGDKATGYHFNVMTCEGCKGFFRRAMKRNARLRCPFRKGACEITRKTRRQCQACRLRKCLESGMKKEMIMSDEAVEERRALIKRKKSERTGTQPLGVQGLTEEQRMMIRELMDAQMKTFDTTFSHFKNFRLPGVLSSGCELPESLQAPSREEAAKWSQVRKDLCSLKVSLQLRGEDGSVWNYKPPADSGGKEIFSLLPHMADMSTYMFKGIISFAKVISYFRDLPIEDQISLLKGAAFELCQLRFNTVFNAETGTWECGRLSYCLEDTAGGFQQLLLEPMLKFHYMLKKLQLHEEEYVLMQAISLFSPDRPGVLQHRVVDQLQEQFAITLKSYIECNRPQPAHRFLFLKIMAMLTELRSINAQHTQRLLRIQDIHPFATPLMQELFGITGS
# sodium channel = assay: Inhibition of sodium channel (unknown origin) at 1 Hz at 10 uM by patch clamp assay relative to control; assay type: toxicity; settings: human
# L-type calcium channel = assay: Inhibition of L-type calcium channel (unknown origin) at 10 uM by patch clamp assay relative to control; assay type: toxicity; settings: human
# Salmonella typhimurium [18] = assay: Mutagenicity in Salmonella typhimurium TA98 at 5000 ug/plate in presence of S9 fraction by Ames test; assay type: toxicity, organism-based; settings: salmonella enterica subsp. enterica serovar typhimurium, dose 5000 µg
# Salmonella typhimurium [19] = assay: Mutagenicity in Salmonella typhimurium TA98 at 5000 ug/plate in absence of S9 fraction by Ames test; assay type: toxicity, organism-based; settings: salmonella enterica subsp. enterica serovar typhimurium; dose 5000 µg
# Salmonella typhimurium [20] = assay: Mutagenicity in Salmonella typhimurium TA1535 at 5000 ug/plate in absence of S9 fraction by Ames test; assay type: toxicity, organism-based; settings: salmonella enterica subsp. enterica serovar typhimurium; dose 5000 µg
# Salmonella typhimurium [21] = assay: Mutagenicity in Salmonella typhimurium TA1537 at 5000 ug/plate in presence of S9 fraction by Ames test; assay type: toxicity, organism-based; settings: salmonella enterica subsp. enterica serovar typhimurium, dose 5000 µg
# Salmonella typhimurium [22] = assay: Mutagenicity in Salmonella typhimurium TA1537 at 5000 ug/plate in absence of S9 fraction by Ames test; assay type: toxicity, organism-based; settings: salmonella enterica subsp. enterica serovar typhimurium; dose 5000 µg
# [23] = Phototoxicity in BALB/c mouse 3T3 fibroblasts; assay type: toxicity, cell-based
# Mus musculus [24] = assay: Anti-hyperglycemic activity in C57BL/6J DIO mouse assessed as reduction in plasma glucose AUC at 10 umol/kg incubated for 120 mins by OGTT; assay type: functional; set-up: scale not given: the % may be the effect or the level left; settings: dose 10 µM/Kg, 2 h, at 10 µmol/kg
# Mus musculus [25] = assay: Anti-hyperglycemic activity in C57BL/6J DIO mouse assessed as reduction in plasma glucose AUC at 1 umol/kg incubated for 120 mins by OGTT; assay type: functional; set-up: scale not given: the % may be the effect or the level left; settings: dose 1 µM/Kg, 2 h, at 1 µmol/kg
# Mus musculus [26] = assay: Anti-hyperglycemic activity in C57BL/6J DIO mouse assessed as reduction in plasma glucose level at 30 umol/kg measured at 1 hr post dose on day 1 by OGTT; assay type: functional; set-up: scale not given: the % may be the effect or the level left; settings: dose 30 µM/Kg, at 30 µmol/kg
# Mus musculus [27] = assay: Anti-hyperglycemic activity in C57BL/6J DIO mouse assessed as reduction in plasma glucose level at 3 umol/kg, po qd measured on day 14 by OGTT; assay type: functional; set-up: scale not given: the % may be the effect or the level left; settings: dose 3 µM/Kg; time 24 hrs; at 3 µmol/kg
# Mus musculus [28] = assay: Anti-hyperglycemic activity in C57BL/6J DIO mouse assessed as reduction in plasma glucose AUC at 0.3 umol/kg incubated for 120 mins by OGTT; assay type: functional; set-up: scale not given: the % may be the effect or the level left; settings: dose 0.3 µM/Kg, 2 h, at 0.3 µmol/kg
# [29] = Permeability of compound at pH >= 5.5 by PAMPA assay; assay type: ADME; settings: read-out: permeability
# [30] = Protein binding in human serum; assay type: ADME, cell-free; settings: read-out: PB (converted)
# ATP-dependent translocase ABCB1, sequence (P08183 whole entry): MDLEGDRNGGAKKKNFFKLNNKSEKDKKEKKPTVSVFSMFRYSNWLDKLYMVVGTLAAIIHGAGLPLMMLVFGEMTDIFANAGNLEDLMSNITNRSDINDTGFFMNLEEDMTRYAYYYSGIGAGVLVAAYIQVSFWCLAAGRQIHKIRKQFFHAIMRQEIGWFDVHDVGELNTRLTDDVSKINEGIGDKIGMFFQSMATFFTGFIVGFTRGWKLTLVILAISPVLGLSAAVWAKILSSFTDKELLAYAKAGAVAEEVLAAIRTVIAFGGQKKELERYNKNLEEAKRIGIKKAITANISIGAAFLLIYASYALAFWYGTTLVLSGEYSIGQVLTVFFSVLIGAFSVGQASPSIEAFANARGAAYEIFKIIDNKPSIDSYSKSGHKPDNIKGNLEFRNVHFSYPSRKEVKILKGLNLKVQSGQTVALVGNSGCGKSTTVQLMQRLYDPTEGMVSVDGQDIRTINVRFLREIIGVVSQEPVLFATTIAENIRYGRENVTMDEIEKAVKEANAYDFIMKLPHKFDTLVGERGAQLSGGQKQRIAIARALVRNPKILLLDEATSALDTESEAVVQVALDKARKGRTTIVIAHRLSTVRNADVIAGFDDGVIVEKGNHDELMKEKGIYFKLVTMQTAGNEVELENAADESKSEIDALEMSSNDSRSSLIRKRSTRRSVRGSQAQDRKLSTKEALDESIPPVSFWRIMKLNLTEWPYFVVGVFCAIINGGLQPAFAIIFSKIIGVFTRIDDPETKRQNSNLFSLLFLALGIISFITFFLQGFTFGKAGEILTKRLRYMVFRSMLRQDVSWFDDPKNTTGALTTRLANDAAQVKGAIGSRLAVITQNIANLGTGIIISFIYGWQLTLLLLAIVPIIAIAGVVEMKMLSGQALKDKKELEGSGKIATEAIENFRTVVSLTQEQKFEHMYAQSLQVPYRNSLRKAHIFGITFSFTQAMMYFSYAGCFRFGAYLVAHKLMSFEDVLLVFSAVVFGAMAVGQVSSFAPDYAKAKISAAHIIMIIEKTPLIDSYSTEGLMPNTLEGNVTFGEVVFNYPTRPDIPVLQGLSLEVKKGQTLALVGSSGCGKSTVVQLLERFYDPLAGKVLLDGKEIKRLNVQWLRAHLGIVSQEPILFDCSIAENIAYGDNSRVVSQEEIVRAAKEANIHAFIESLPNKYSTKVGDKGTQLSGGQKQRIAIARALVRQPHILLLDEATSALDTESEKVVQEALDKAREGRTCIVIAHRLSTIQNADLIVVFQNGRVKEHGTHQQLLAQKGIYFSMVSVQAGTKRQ
compound,measurement,setting,value
CCOP(=O)(Cn1ccc(NC(=O)c2cc(Oc3cnc(C(=O)N4CCC4)cn3)cc(OC(C)C)c2)n1)OCC,AUC(0-t),[1],16.6 µM·h
same,Cmax,[2],14.1 µM
same,Cmax,[3],13 µM
same,Cmax,[4],4.9 µM
same,Tmax,[5],30 min
same,Tmax,[6],54 min
same,half-life,[7],108 min
same,Vd,[8],0.3 L/kg
same,clearance,[9],2.9 mL/min/kg
same,clearance,[10],7.2 mL/min/kg
same,bioavailability,[11],100%
same,bioavailability,[12],66%
same,bioavailability,[13],15%
same,AUC(0-t),[14],24.9 µM·h
same,AUC(0-t),[15],12.3 µM·h
same,IC50,Cytochrome P450 2C8,7.7 µM
same,IC50,[16],55 µM
same,Activity,[17],Not Active
same,inhibition at 10 µM,sodium channel,9%
same,inhibition at 10 µM,L-type calcium channel,13%
same,Activity,Salmonella typhimurium [18],Non-Toxic
same,Activity,Salmonella typhimurium [19],Non-Toxic
same,Activity,Salmonella typhimurium [20],Non-Toxic
same,Activity,Salmonella typhimurium [21],Non-Toxic
same,Activity,Salmonella typhimurium [22],Non-Toxic
same,Activity,[23],Toxic
same,Activity,Mus musculus [24],-62%
same,Activity,Mus musculus [25],-28%
same,Activity,Mus musculus [26],-46%
same,Activity,Mus musculus [27],-16%
same,Activity,Mus musculus [28],-18%
same,Papp,[29],> 40 ×10⁻⁶ cm/s
same,fraction unbound,[30],0.054
